Reference: patent US5770573A, “CS-1 peptidomimetics, compositions and methods of using the same” (Cytel Corporation, priority 1995, dated 1998)
Square brackets hold non-standard residues; d marks the D form. Peptide text beside a SMILES is read from it. * marks the point of attachment. PhAc = O=C(Cc1ccccc1)*

What was measured:
[1] = tested on: Porcine peripheral blood lymphocytes; experiment: In vitro porcine allograft model: transendothelial lymphocyte migration; assay type: cell-based; details: 10 μg/ml in the medium; IL-1β-stimulated SMC
Description: A similar study was carried out in vitro using porcine coronary artery endothelial cells (EC; as are present in the IEL) and smooth muscle cells (SMC; as are present in the medial layer of the artery). The two cell types were cultured using a membrane transwell system, with the SMC on the bottom layer in M-199 medium (Gibco Labs.). The SMC were stimulated with 100 ng/ml of interleukin-1β (IL-1β) for 24 hours prior to the start of the assay. Porcine peripheral blood lymphocytes were separated by Ficoll-Hypaque, radiolabeled and incubated overnight (about 18 hours) on the EC.
Transendothelial lymphocyte migration in the IL-1β-stimulated SMC was observed as compared to unstimulated SMC (p<0.05).

asthmatic sheep = experiment: Treatment of asthmatic sheep (Ascaris suum antigen); assay type: in vivo; details: 24 hours after challenge; pre-challenge about 20-23 BU
Description: Six asthmatic sheep were treated in a double blind cross-over study. […] This study was carried out generally as described in Abraham et al., J. Clin. Invest., 93:776-787 (1994).
The inhibitor compound used here was Compound ID No. 896.52, N-phenylacetyl-Leu-Asp-Phe-D-Pro-NH2, with a control compound that comprised the previously described compound having the same residues in a scrambled sequence. The vehicle for the nebulized compounds was phosphate-buffered saline. The compounds were administered at a dose of 1 mg/kg each, twice a day for three days prior to challenge, as well as 0.5 hours prior to and four hours post challenge on day 4. Because this was a crossover study, each animal received one or the other treatment, followed by a rest and then the other treatment. Each animal therefore served as its own control.
Post challenge airway responsiveness was also assayed. Here, specific lung resistance, SRL, returned to baseline values 24 hours after challenge, however, the sheep were hyperresponsive to inhaled carbachol at that time.

VLA-4 = VLA-4 (Homo sapiens, UniProt P05556+P13612); experiment: In vitro binding inhibition of 51Cr-labeled Jurkat cells to solid phase-bound CS-1 compound (SEQ ID NO:1); assay type: cell-based; set-up: inflammatory cells that contain the VLA-4 receptor [Jurkat cells; host or cells: Jurkat (human T lymphoblastic line)
Sequence of VLA-4 (P13612 34-1032): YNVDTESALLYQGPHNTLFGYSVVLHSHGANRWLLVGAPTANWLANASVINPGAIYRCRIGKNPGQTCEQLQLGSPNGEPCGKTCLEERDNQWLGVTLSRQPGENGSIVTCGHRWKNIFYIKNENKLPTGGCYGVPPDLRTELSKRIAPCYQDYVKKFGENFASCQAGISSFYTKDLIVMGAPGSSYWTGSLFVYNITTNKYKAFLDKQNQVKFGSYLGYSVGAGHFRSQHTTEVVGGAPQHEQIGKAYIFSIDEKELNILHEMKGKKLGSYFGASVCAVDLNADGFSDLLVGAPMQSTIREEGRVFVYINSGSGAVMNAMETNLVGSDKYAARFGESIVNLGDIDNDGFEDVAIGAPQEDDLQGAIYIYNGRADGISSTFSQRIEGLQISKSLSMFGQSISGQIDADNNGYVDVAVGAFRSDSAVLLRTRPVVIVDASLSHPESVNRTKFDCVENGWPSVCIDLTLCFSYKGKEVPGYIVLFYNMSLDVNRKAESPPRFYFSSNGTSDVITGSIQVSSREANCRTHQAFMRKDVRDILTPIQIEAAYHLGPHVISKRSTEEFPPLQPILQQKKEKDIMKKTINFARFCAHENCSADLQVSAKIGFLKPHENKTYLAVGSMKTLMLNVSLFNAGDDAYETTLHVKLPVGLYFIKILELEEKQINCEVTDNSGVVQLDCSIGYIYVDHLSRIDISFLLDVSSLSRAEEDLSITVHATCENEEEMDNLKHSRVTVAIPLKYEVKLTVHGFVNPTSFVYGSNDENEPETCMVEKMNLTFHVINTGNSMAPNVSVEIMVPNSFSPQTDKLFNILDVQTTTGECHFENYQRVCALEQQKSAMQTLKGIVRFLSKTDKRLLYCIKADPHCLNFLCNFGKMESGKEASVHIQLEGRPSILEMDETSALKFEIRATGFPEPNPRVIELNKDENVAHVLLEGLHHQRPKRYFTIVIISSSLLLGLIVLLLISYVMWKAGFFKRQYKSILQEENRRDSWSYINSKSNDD
Sequence of VLA-4 (P05556 21-798): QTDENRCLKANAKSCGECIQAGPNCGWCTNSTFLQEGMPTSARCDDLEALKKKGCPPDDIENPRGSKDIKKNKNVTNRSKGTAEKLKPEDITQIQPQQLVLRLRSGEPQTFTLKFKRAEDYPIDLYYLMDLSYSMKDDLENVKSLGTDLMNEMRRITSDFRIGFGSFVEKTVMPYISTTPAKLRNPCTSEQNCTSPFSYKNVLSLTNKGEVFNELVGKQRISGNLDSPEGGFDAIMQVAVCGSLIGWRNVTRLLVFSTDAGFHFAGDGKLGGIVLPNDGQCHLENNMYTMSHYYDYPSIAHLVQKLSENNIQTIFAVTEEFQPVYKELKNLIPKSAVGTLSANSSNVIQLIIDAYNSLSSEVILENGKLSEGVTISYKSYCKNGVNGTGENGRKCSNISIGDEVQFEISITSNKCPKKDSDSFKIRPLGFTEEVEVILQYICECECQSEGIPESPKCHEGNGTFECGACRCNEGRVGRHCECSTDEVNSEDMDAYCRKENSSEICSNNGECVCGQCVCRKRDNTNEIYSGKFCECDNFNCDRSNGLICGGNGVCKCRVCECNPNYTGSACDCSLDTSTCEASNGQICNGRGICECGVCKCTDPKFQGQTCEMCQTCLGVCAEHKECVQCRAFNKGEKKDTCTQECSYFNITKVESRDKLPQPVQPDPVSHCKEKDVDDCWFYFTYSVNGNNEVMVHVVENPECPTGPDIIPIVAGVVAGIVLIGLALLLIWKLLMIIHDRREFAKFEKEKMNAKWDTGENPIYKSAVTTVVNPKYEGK
Procedure, shortened: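 51Cr-labeled human Jurkat cells were preincubated with compound 30 min at about 22° C, then allowed to bind to wells coated with CS-1 peptide or CS-1-OVA for 30 min at 37° C. After washing, bound cells were lysed with SDS and counted. IC50 is the concentration halving binding, normalized to SEQ ID NO: 3.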

CC(C)C[C@H](NC(=O)[C@H](CC(=O)O)NC(=O)Cc1ccccc1)C(=O)N[C@@H](Cc1ccccc1)C(=O)N1CCC[C@@H]1C(N)=O [Compound ID No. 1066.02, N-phenylacetyl-Asp-Leu-Phe-D-Pro-NH2, reference compound] (PhAc-DLF[dP]-NH2)
reduction of lymphocyte migration [1]: did not reduce migration | PC400, carbachol dosage to increase SRL 4-fold (asthmatic sheep): about 12 BU | Relative Potency (VLA-4; binding inhibition potency relative to standard compound of SEQ ID NO:3 = 1 (normalized IC50), about one-tenth or less assigned zero): 0 | VLA-4 binding inhibition compared in words (VLA-4; compared with standard 10-mer of SEQ ID NO:3): no inhibition of VLA-4
